The nature of one series: physchem. From the text:
The total quantity of moles of the solutes in the mixture (i.e. n0) is approximately 5×10^−4 moles. The pH of the mixture is approximately 7.4 (phosphate buffer: PBS).
A sequence of 3 rows of partitions—as illustrated in FIG. 2—is applied to the mixture by using hydrated n-octanol for the partition of the aqueous mixture and that of the aqueous phases issued from the partitions of rows 1 and 2 (i.e. the phases φ11, φ21 and φ23), and an aqueous solution comprising PBS buffer having a pH of 7 in distilled water for the partition of the organic phases issued from the partitions of rows 1 and 2 (i.e. the phases φ12, φ22 and φ24).
The concentration of each solute in the phases issued from the partitions of rows 1, 2 and 3 (i.e. the phases φ11 to φ38) is monitored by UV-visible spectroscopy but only with the goal of verifying the proper running of the experiment.

For series [1] the following is noted: theoretical log D; cited from earlier work.
[2] abbreviates: pH 7.4, experimental log D, log D of the solutes as verified experimentally, hydrated n-octanol/PBS buffer, UV-visible spectroscopy.
Where [3] appears, read: pH 7.4, log D, in the experimental conditions used for this validation, n-octanol/aqueous phase, pH approximately 7.4 (PBS).

As for `Cn1c(=O)c2[nH]cnc2n(C)c1=O` [Theophylline, theophylline], the figures for the logD in the series “physchem” (setting [2]) and in “physchem” (setting [3]) were 0.01 and -0.02, respectively.
With `c1ccc2[nH]cnc2c1` [Benzimidazole, benzimidazole], the log distribution coefficient (logD) (in general, lipophilicity at a set pH, counting ionised and neutral species) in the series “physchem” (setting [2]) is 1.33; in the series “physchem” (setting [3]), 1.34.
Consider `CC(C)(c1ccc(O)cc1)c1ccc(O)cc1` [BPA, bisphenol A], for which, in series [1], the “log D^THEOR” value is 3.32.
Turning to `CC(C)=O` [acetone], the “log D^THEOR” value in series [1] is on record as ~−0.24.
